From PubChem BioAssay (NCI)
“And” between values parts separate entries of the source, which are not always exact repeats. Equal entries are not always repeated.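 These data come from cells grown in 96-well plates and exposed to compound for 48 hours at five concentrations. Here, GI50 denotes the concentration required for 50% inhibition of growth. TGI denotes the concentration required for complete inhibition of growth.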

What was measured:
Assay in all cases: growth of human tumour cells (NCI), 48 h
ACHN renal = tested on: ACHN renal
OVCAR-5 ovarian = tested on: OVCAR-5 ovarian
HCT-15 colon = tested on: HCT-15 colon
A549 NSCLC = tested on: A549 NSCLC
SW-620 colon = tested on: SW-620 colon
SK-MEL-2 melanoma = tested on: SK-MEL-2 melanoma
NCI-H522 lung = tested on: NCI-H522 lung
OVCAR-8 ovarian = tested on: OVCAR-8 ovarian
SF-268 CNS = tested on: SF-268 CNS
U251 CNS = tested on: U251 CNS

Structure (SMILES)	TGI (ACHN renal) [µM]	TGI (OVCAR-5 ovarian) [µM]	TGI (HCT-15 colon) [µM]	TGI (A549 NSCLC) [µM]	TGI (SW-620 colon) [µM]	TGI (SK-MEL-2 melanoma) [µM]	TGI (NCI-H522 lung) [µM]	TGI (OVCAR-8 ovarian) [µM]	TGI (SF-268 CNS) [µM]	TGI (U251 CNS) [µM]	GI50 (ACHN renal)	GI50 (OVCAR-5 ovarian)	GI50 (HCT-15 colon)	GI50 (A549 NSCLC)	GI50 (NCI-H522 lung)	GI50 (SF-268 CNS)	GI50 (SW-620 colon) [µM]	GI50 (SK-MEL-2 melanoma) [µM]	GI50 (OVCAR-8 ovarian) [µM]	GI50 (U251 CNS) [µM]
O=[N+]([O-])c1ccc(Cc2nc3cc4ccccc4cc3[nH]2)cc1C(F)(F)F	29.3	27.5	> 100	64.8	62.2	44.4	70.6	48.5	39	37.3	–	–	–	–	–	–	–	–	–	–
COC1=CC(=O)c2c(c(COC(C)=O)cn2C)C1=O	0.173	0.0689	0.0522	0.509	0.193	0.373	0.0405	0.313	0.808	0.734	–	–	–	–	–	–	–	–	–	–
CC(=O)Nc1c2sscc-2n(C)c1=O	12.1	3	2.66	3.56	1.83	3.36	2.65	1.36	3.09	2.54	–	–	–	–	–	–	–	–	–	–
CN(CC(=O)O)CC(=O)O	> 100	> 100	> 100	> 100	> 100	> 100	> 100	> 100	> 100	> 100	–	–	–	–	–	–	–	–	–	–
O=C(CC(Cc1ccccc1)c1ccc(Oc2ccccc2)cc1)Nc1cccc(Cl)c1 (stereo unspecified)	27.1	> 100	> 100	> 100	> 100	13.6	26.5	> 100	> 100	> 100	–	–	–	–	–	–	–	–	–	–
N#CC(NNC(=O)c1c(Cl)c(Cl)c(Cl)c(Cl)c1-c1nc2ccc(C(=O)c3ccccc3)cc2[nH]1)c1ccccc1 (stereo unspecified)	> 100	> 100	> 100	> 100	> 100	58.1	18	> 100	> 100	> 100	–	–	–	–	–	–	–	–	–	–
COc1ccc(N2C(=O)C(=O)N(C)C2=O)c2ccccc12	> 10	> 10	> 10	> 10	> 10	> 10	> 10	> 10	> 10	> 10	–	–	–	–	–	–	–	–	–	–
C1=Nc2ccccc2Cn2nncc21	> 100	> 100	> 100	> 100	> 100	> 100	> 100	> 100	> 100	> 100	–	–	–	–	–	–	–	–	–	–
O=c1ccc2c(Cl)cccc2o1	> 100	> 100	–	> 100	> 100	> 100	> 100	> 100	> 100	> 100	–	–	–	–	–	–	–	–	–	–
O=S(=O)(Nc1nccs1)c1ccc([As](=O)(O)O)cc1	> 100	> 100	> 100	> 100	> 100	> 100	> 100	> 100	> 100	> 100	–	–	–	–	–	–	–	–	–	–
COc1cc(/C=N/N=C(\N)NO)ccc1O	> 100	90.3	> 100	> 100	> 100	> 100	> 100	> 100	> 100	> 100	–	–	–	–	–	–	–	–	–	–
O=[N+]([O-])c1ccc(NNN=Nc2ccc(-c3nc4ccccc4[nH]3)cc2)c([N+](=O)[O-])c1	> 100	> 100	> 100	> 100	> 100	88.6	61	> 100	> 100	> 100	–	–	–	–	–	–	–	–	–	–
CCN(CC)CCCC(C)Nc1c2ccc(Cl)cc2nc2cc(Cl)ccc12 (stereo unspecified)	–	21.2	9.85	18.1	12.5	29.2	17.5	19.3	16.3	14.3	–	–	–	–	–	–	–	–	–	–
OCC(O)C(O)C(O)C(O)CNCCO/N=C1/C(c2c(O)[nH]c3ccccc23)=Nc2ccccc21 (stereo unspecified)	> 50	> 50	> 50	> 50	> 50	15.7	33	> 50	28	39.8	–	–	–	–	–	–	–	–	–	–
CC(C(=O)NCCNC(=O)CCCC(=O)N(C)O)C(=O)NCCNC(=O)CCCC(=O)N(C)O	> 100	> 100	> 100	> 100	> 100	> 100	> 100	> 100	> 100	> 100	–	–	–	–	–	–	–	–	–	–
CSC1=C(SC)C(=O)c2cn(C)c(=O)cc2C1=O	3.32	35.2	4.78	36.9	2.58	17.1	2.19	> 70.9	17	26.2	–	–	–	–	–	–	–	–	–	–
CC[C@@]1(O)C(=O)OCc2c1cc1n(c2=O)Cc2cc3c(CN(C)C)c(O)ccc3nc2-1	–	–	–	–	–	–	–	–	–	–	< 0.01 µM and 0.00474 µM and 0.0188 µM	0.168 µM and 0.217 µM and 0.407 µM	0.304 µM and 0.0813 µM and 0.67 µM	0.0545 µM and 0.08 µM	< 0.025 µM and 0.0206 µM and 0.0416 µM	< 0.01 µM and 0.00517 µM and 0.0175 µM	–	–	–	–
Clc1ccc(OCc2nnc3sc(SSc4nn5c(COc6ccc(Cl)cc6)nnc5s4)nn23)cc1	> 100	> 100	> 100	> 100	> 100	> 100	> 100	> 100	> 100	> 100	–	–	86.2 µM	–	–	–	–	–	–	–
Fc1cc(C2=Nn3c(CNc4ccc(Cl)cc4)nnc3S/C2=C\c2ccc(-c3ccc(Cl)cc3)o2)c(Cl)cc1Cl	> 100	98.5	> 100	> 100	> 100	> 100	> 100	> 100	> 100	57.6	–	–	–	–	–	–	–	–	–	–
CC1(CO)C(O)CCC2(C)C1C(O)CC1CC3CC12CCC3(O)CO (stereo unspecified)	–	> 225	> 225	> 225	> 225	> 225	> 225	> 225	> 225	> 225	–	–	–	–	–	–	–	–	–	–
OC(c1ccccc1)C1CC2C=CC1C2 (stereo unspecified)	> 100	> 100	> 100	> 100	> 100	> 100	> 100	> 100	> 100	> 100	–	–	–	–	–	–	–	–	–	–
CNCCCn1c2c(c3ccc(Cl)cc3c1=O)C(=O)c1cc(OC)cnc1-2	1.58	3.18	–	–	1.98	33.4	–	3.5	2.19	–	0.224 µM	1.69 µM	–	–	–	0.397 µM	0.0762	13.2	1.18	–
Fc1ccc(Nc2ncc(-c3cc(F)c(Cl)cc3Cl)s2)cc1Cl	51.5	30.5	> 100	31.3	24.9	57.9	44.3	64.2	20.3	23.7	19.3 µM	15.8 µM	3.44 µM	14.9 µM	20.8 µM	5.63 µM	5.47	22.8	20.1	6.09
COc1ccc(/C=C2\C[C@H]3[C@@H]4CC=C5C[C@@H](OC(C)=O)CC[C@]5(C)[C@H]4CC[C@]3(C)C2=O)cc1OC	> 100	> 100	> 100	> 100	> 100	> 100	> 100	> 100	> 100	–	–	–	–	–	–	–	–	–	–	–
Clc1ccc(C2CC(c3cccc(Nc4ccncc4)c3)=NN2c2ccccc2)cc1 (stereo unspecified)	3.02	3.07	2.83	–	3.34	3.84	3.24	–	3.84	3.81	1.66 µM	1.66 µM	1.42 µM	–	1.57 µM	1.87 µM	1.67	1.98	–	1.89
CC(C)C(=O)Nc1ccc(-c2nc(-c3cccc(OCCN4CCOCC4)c3)c(-c3ccnc(Br)c3)[nH]2)cc1	94.1	> 100	4.67	> 100	8.59	5.54	48.7	> 100	> 100	14.5	3.87 µM	6.42 µM	2.02 µM	3.73 µM	3.26 µM	4.26 µM	2.87	2.21	4.16	2.27
CC(C)(C)CNCCCNc1ccc(Cl)cc1	> 100	> 100	> 100	> 100	> 100	> 100	> 100	> 100	> 100	> 100	–	–	–	–	–	–	–	–	–	–
COc1ccc(C2CC(c3ccc(NS(=O)(=O)c4cc([N+](=O)[O-])ccc4C)cc3)=NN2S(=O)(=O)c2cc([N+](=O)[O-])ccc2C)cc1 (stereo unspecified)	> 100	> 100	> 100	> 100	> 100	> 100	79.4	> 100	79.9	> 100	–	–	–	–	–	–	–	–	–	–
